ChEMBL document CHEMBL1201862, “PubChem BioAssay data set” (2004)
Where “and” joins values, the source holds several entries; their conditions need not be identical. Equal entries are not always repeated.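 Tested at 5 concentrations; 48 h exposure; 96-well plates; endpoints linearly interpolated, else capped at highest concentration. GI50 = concentration required for 50% inhibition of growth.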 Calls of active or inactive are those of the source. No stated cut-off is given here; in the data, active = GI50 up to about 1.1 µM and inactive = higher.

Columns and labels:
Experiment in all cases: growth of human tumour cells (NCI), 48 h
SK-MEL-2 = test system: SK-MEL-2
RXF 393 = test system: RXF 393
OVCAR-3 = test system: OVCAR-3
K562 = test system: K562
TK-10 = test system: TK-10
SF-539 = test system: SF-539
Hs-578T = test system: Hs-578T
SF-295 = test system: SF-295
COLO 205 = test system: COLO 205
MDA-N = test system: MDA-N
KM12 = test system: KM12
HOP-92 = test system: HOP-92
RPMI-8226 = test system: RPMI-8226
HOP-62 = test system: HOP-62
LOX IMVI = test system: LOX IMVI
786-0 = test system: 786-0
SN12C = test system: SN12C
NCI-H23 = test system: NCI-H23
HCC 2998 = test system: HCC 2998

Compound	GI50 (SK-MEL-2)	GI50 (RXF 393)	GI50 (OVCAR-3)	GI50 (K562)	GI50 (TK-10)	GI50 (SF-539)	GI50 (Hs-578T)	GI50 (SF-295)	GI50 (COLO 205)	GI50 (MDA-N)	GI50 (KM12)	GI50 (HOP-92)	GI50 (RPMI-8226)	GI50 (HOP-62)	GI50 (LOX IMVI)	GI50 (786-0)	GI50 (SN12C)	GI50 (NCI-H23)	GI50 (HCC 2998)
COc1ccc(/C=C/c2nsc(/C=C/c3ccc(OC)cc3)n2)cc1	> 100 µM (inactive)	> 100 µM (inactive)	> 100 µM (inactive)	33.3 µM (inactive)	> 100 µM (inactive)	> 100 µM (inactive)	> 100 µM (inactive)	> 100 µM (inactive)	> 100 µM (inactive)	> 100 µM (inactive)	> 100 µM (inactive)	> 100 µM (inactive)	28.7 µM (inactive)	> 100 µM (inactive)	55.1 µM (inactive)	21.8 µM (inactive)	–	–	–
CSc1ccn(C2CC(F)C(CO)O2)c(=O)n1 (stereo not given)	> 100 µM (inactive)	> 100 µM (inactive)	> 100 µM (inactive)	> 100 µM (inactive)	> 100 µM (inactive)	> 100 µM (inactive)	> 100 µM (inactive)	> 100 µM (inactive)	> 100 µM (inactive)	> 100 µM (inactive)	> 100 µM (inactive)	> 100 µM (inactive)	–	> 100 µM (inactive)	> 100 µM (inactive)	> 100 µM (inactive)	> 100 µM (inactive)	> 100 µM (inactive)	> 100 µM (inactive)
S=c1cc(-c2ccc3c(c2)OCO3)s[nH]1	> 100 µM (inactive)	> 100 µM (inactive)	> 100 µM (inactive)	> 100 µM (inactive)	> 100 µM (inactive)	> 100 µM (inactive)	> 100 µM (inactive)	> 100 µM (inactive)	> 100 µM (inactive)	> 100 µM (inactive)	> 100 µM (inactive)	> 100 µM (inactive)	> 100 µM (inactive)	> 100 µM (inactive)	> 100 µM (inactive)	> 100 µM (inactive)	> 100 µM (inactive)	> 100 µM (inactive)	–
CC(=O)OC1CC2(C)C(=CC1C1SCCS1)CCC1C2CCC2(C)C(OC(C)=O)CCC12 (stereo not given)	45.4 µM (inactive)	19.3 µM (inactive)	> 100 µM (inactive)	> 100 µM (inactive)	64.1 µM (inactive)	53.1 µM (inactive)	14.6 µM (inactive)	23.4 µM (inactive)	> 100 µM (inactive)	> 100 µM (inactive)	> 100 µM (inactive)	66.4 µM (inactive)	> 100 µM (inactive)	97.5 µM (inactive)	> 100 µM (inactive)	> 100 µM (inactive)	> 100 µM (inactive)	> 100 µM (inactive)	–
Cn1c2ccccc2c(=O)c2cccc(C(=O)NC(CCC(N)=O)C(=O)O)c21 (stereo not given)	> 100 µM (inactive)	–	> 100 µM (inactive)	> 100 µM (inactive)	> 100 µM (inactive)	> 100 µM (inactive)	> 100 µM (inactive)	> 100 µM (inactive)	> 100 µM (inactive)	> 100 µM (inactive)	> 100 µM (inactive)	–	> 100 µM (inactive)	> 100 µM (inactive)	> 100 µM (inactive)	> 100 µM (inactive)	> 100 µM (inactive)	> 100 µM (inactive)	> 100 µM (inactive)
Cc1ccc2nc3ccccc3c(C3C4C(=O)N(c5ccc(Br)cc5Cl)C(=O)C4ON3C(C(N)=O)c3ccccc3)c2c1 (stereo not given)	18.1 µM (inactive)	13.3 µM (inactive)	> 25 µM (inactive)	> 25 µM (inactive)	> 25 µM (inactive)	11.8 µM (inactive)	> 25 µM (inactive)	> 25 µM (inactive)	> 25 µM (inactive)	6.9 µM (inactive)	> 25 µM (inactive)	> 25 µM (inactive)	–	> 25 µM (inactive)	22.8 µM (inactive)	20.8 µM (inactive)	5.47 µM (inactive)	0.321 µM (active)	–
CCN1C(Cl)=NS(=O)(=O)c2ccccc21	39.7 µM (inactive)	17.3 µM (inactive)	19.3 µM (inactive)	7.83 µM (inactive)	18.5 µM (inactive)	15.9 µM (inactive)	36.9 µM (inactive)	> 100 µM (inactive)	14.9 µM (inactive)	29.1 µM (inactive)	51.8 µM (inactive)	18.8 µM (inactive)	–	25.2 µM (inactive)	15.7 µM (inactive)	19.3 µM (inactive)	18.6 µM (inactive)	23.6 µM (inactive)	20.3 µM (inactive)
COc1cccc2c1CCc1sc(CN3CCN(C)CC3)nc1-2	> 100 µM (inactive)	6.84 µM (inactive)	> 100 µM (inactive)	31.4 µM (inactive)	> 100 µM (inactive)	–	> 100 µM (inactive)	53 µM (inactive)	61.2 µM (inactive)	55.5 µM (inactive)	80.2 µM (inactive)	–	30.1 µM (inactive)	> 100 µM (inactive)	–	78.5 µM (inactive)	> 100 µM (inactive)	84.7 µM (inactive)	49.4 µM (inactive)
COC1OC(COC(=O)NCCCCC(=O)C(F)(F)C(F)(F)C(F)(F)C(F)(F)C(F)(F)C(F)(F)C(F)(F)F)C(O)C(O)C1O (stereo not given)	22.2 µM (inactive) and 21.8 µM (inactive)	13.6 µM (inactive) and 15.1 µM (inactive)	15.5 µM (inactive) and 14.9 µM (inactive)	10.6 µM (inactive) and 16 µM (inactive)	16.9 µM (inactive) and 16.4 µM (inactive)	18 µM (inactive) and 15.5 µM (inactive)	15.2 µM (inactive) and 17.7 µM (inactive)	20.7 µM (inactive) and 19.5 µM (inactive)	25.9 µM (inactive) and 21.8 µM (inactive)	24 µM (inactive) and 26.4 µM (inactive)	17.5 µM (inactive) and 18.7 µM (inactive)	–	28.9 µM (inactive) and 29.9 µM (inactive)	15 µM (inactive) and 16.2 µM (inactive)	14.2 µM (inactive) and 15.9 µM (inactive)	16.4 µM (inactive) and 16.5 µM (inactive)	19.6 µM (inactive) and 21.4 µM (inactive)	14.8 µM (inactive) and 17.8 µM (inactive)	19.6 µM (inactive) and 19.5 µM (inactive)
C=C1C2CCC3C4(C)CCCC(C)(C(=O)O)C4CCC3(C2)C1OC(=O)/C(C)=C/C (stereo not given)	36.1 µM (inactive)	15.9 µM (inactive)	19.8 µM (inactive)	–	72.8 µM (inactive)	27.5 µM (inactive)	35.2 µM (inactive)	20.3 µM (inactive)	29.6 µM (inactive)	22.6 µM (inactive)	17.3 µM (inactive)	25.6 µM (inactive)	–	45.6 µM (inactive)	34.5 µM (inactive)	60.7 µM (inactive)	23 µM (inactive)	36.8 µM (inactive)	26.7 µM (inactive)
CC1(O)CC23CC1CCC2(C)C12CCCC(C)(C(=O)O1)C2CC3O (stereo not given)	> 100 µM (inactive)	–	–	> 100 µM (inactive)	> 100 µM (inactive)	> 100 µM (inactive)	> 100 µM (inactive)	> 100 µM (inactive)	> 100 µM (inactive)	> 100 µM (inactive)	> 100 µM (inactive)	> 100 µM (inactive)	–	–	> 100 µM (inactive)	> 100 µM (inactive)	> 100 µM (inactive)	> 100 µM (inactive)	> 100 µM (inactive)
CC1(C)O[C@@H]([C@@H](O)[C@H](O)C2SCCCS2)[C@@H](CO)O1	> 100 µM (inactive)	> 100 µM (inactive)	> 100 µM (inactive)	> 100 µM (inactive)	> 100 µM (inactive)	–	> 100 µM (inactive)	> 100 µM (inactive)	> 100 µM (inactive)	> 100 µM (inactive)	> 100 µM (inactive)	> 100 µM (inactive)	> 100 µM (inactive)	> 100 µM (inactive)	> 100 µM (inactive)	> 100 µM (inactive)	> 100 µM (inactive)	> 100 µM (inactive)	–
CC1=NN2C=Nc3c(c(-c4ccc(Cl)cc4)cn3-c3ccc(C)cc3)C2N1 (stereo not given)	> 100 µM (inactive)	42.5 µM (inactive)	> 100 µM (inactive)	> 100 µM (inactive)	42.8 µM (inactive)	87.1 µM (inactive)	11.3 µM (inactive)	39.3 µM (inactive)	> 100 µM (inactive)	> 100 µM (inactive)	–	17.1 µM (inactive)	–	36.5 µM (inactive)	> 100 µM (inactive)	19.5 µM (inactive)	> 100 µM (inactive)	> 100 µM (inactive)	> 100 µM (inactive)
Oc1ccc2cc(Br)ccc2c1-c1c(O)ccc2ccc(Br)cc12	16 µM (inactive)	–	13.9 µM (inactive)	18.5 µM (inactive)	16.7 µM (inactive)	18.5 µM (inactive)	11.9 µM (inactive)	15.4 µM (inactive)	13.6 µM (inactive)	12.2 µM (inactive)	6.84 µM (inactive)	–	–	14.7 µM (inactive)	–	13.8 µM (inactive)	12 µM (inactive)	14.4 µM (inactive)	6.52 µM (inactive)
CSCCCNC(=O)c1csc(-c2csc(CCNC(=O)CNC(=O)OC(C)(C)C)n2)n1	> 100 µM (inactive)	> 100 µM (inactive)	> 100 µM (inactive)	> 100 µM (inactive)	> 100 µM (inactive)	> 100 µM (inactive)	> 100 µM (inactive)	> 100 µM (inactive)	> 100 µM (inactive)	> 100 µM (inactive)	> 100 µM (inactive)	> 100 µM (inactive)	–	> 100 µM (inactive)	> 100 µM (inactive)	> 100 µM (inactive)	> 100 µM (inactive)	77.6 µM (inactive)	> 100 µM (inactive)
